Reference: patent publication US8633245B2, “PAI-1 inhibitor” (Institute of Medicinal Molecular Design, Inc., priority 2008, dated 2014)

Biological target: T1, recombinant human PAI-1 (Homo sapiens, UniProt P05121)
T1 construct: purchased Molecular Innovations, Inc
Assay: Test Example 1: human PAI-1 inhibitory activity (tPA fluorogenic substrate, pH 7.5 Tris buffer)
Assay type: biochemical
Conditions: Tris buffer
Method: 50 mM Tris, 150 mM NaCl, 10 μg/ml BSA, 0.01% Tween80 (SIGMA-ALDRICH Corporation)

T1 sequence (P05121 24-402): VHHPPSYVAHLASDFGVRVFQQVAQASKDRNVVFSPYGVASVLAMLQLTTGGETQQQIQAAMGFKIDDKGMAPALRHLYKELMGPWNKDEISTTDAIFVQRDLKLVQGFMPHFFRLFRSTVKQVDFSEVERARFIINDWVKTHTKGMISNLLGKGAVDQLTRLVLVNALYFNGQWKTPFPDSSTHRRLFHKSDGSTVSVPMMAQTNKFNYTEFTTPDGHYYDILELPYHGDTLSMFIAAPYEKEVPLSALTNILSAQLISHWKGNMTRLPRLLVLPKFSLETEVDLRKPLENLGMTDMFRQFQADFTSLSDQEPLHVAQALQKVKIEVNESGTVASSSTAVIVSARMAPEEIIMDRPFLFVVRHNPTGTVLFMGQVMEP

Row | Compound | Inhibition Rate of PAI-1 Activity (%) (Compound Concentration 5 μM) | Inhibition Rate of PAI-1 Activity (%) (Compound Concentration 10 μM) | Inhibition Rate of PAI-1 Activity (%) (Compound Concentration 25 μM) | Inhibition Rate of PAI-1 Activity (%) (Compound Concentration 0.5 μM) | Inhibition Rate of PAI-1 Activity (%) (Compound Concentration 1 μM)
1 | CCCCCOc1ccc(N(CCCCc2ccccc2)C(=O)C(=O)O)cc1-c1ccc(OC(F)(F)F)cc1 [Compound 244] | 71% | 91% | – | – | –
2 | CC(C)(C)c1ccc(-c2ccc(N(Cc3ccccc3)C(=O)C(=O)O)cc2)cc1 [Compound 156] | 10% | 25% | 67% | – | –
3 | CC(C)(C)c1ccc(CN(C(=O)C(=O)O)c2ccc(-c3cccc(OC(F)(F)F)c3)cc2)cc1 [Compound 200] | 64% | 89% | 92% | – | –
4 | CC(C)(C)CN(C(=O)C(=O)O)c1ccc(-c2ccc(OC(F)(F)F)cc2)cc1 [Compound 255] | 2% | 8% | 23% | – | –
5 | O=C(O)CCc1cc(-c2ccc(OC(F)(F)F)cc2)ccc1OCc1ccc(OC(F)(F)F)cc1 [Compound 62] | 29% | 62% | 99% | – | –
6 | CC(C)(C)c1ccc(COc2ccc(-c3ccc(OC(F)(F)F)cc3)cc2/C=C/C(=O)O)cc1 [Compound 25] | 96% | 97% | 93% | – | –
7 | O=C(O)C(=O)N(Cc1ccc(-c2ccccc2)cc1)c1ccc(-c2ccc(OC(F)(F)F)cc2)cc1 [Compound 161] | 27% | 62% | >99% | – | –
8 | Cc1ccc(N(Cc2ccc(C(C)(C)C)cc2)C(=O)C(=O)O)cc1Oc1ccc(OC(F)(F)F)cc1 [Compound 187] | 75% | 92% | 88% | – | –
9 | CC(C)(C)c1ccc(COc2ccc(-c3ccc(OC(F)(F)F)cc3)cc2C=CC(=O)O)cc1 [Compound 4] | 84% | 78% | – | – | –
10 | CC(C)(C)c1ccc(COc2ccc(-c3ccc(F)cc3)cc2/C=C/C(=O)O)cc1 [Compound 33] | 23% | 53% | 96% | – | –
11 | CCC(CC)Oc1ccc(N(CCCc2ccccc2)C(=O)C(=O)O)c(-c2ccc(OC(F)(F)F)cc2)c1 [Compound 237] | 75% | 92% | – | – | –
12 | CC(C)(C)c1ccc(-c2ccc(N(Cc3ccc(OC(F)(F)F)cc3)C(=O)C(=O)O)cc2)cc1 [Compound 162] | 30% | 74% | >99% | – | –
13 | CC(C)(C)Oc1ccc(N(Cc2ccc(C(C)(C)C)cc2)C(=O)C(=O)O)cc1-c1ccc(OC(F)(F)F)cc1 [Compound 218] | 83% | 78% | – | – | –
14 | O=C(O)C(=O)N(CCCCCc1ccccc1)c1ccc(-c2ccc(OC(F)(F)F)cc2)cc1 [Compound 228] | 45% | 71% | 95% | – | –
15 | O=C(O)C=Cc1c(Oc2ccc(OC(F)(F)F)cc2)cccc1Oc1ccc(OC(F)(F)F)cc1 [Compound 97] | 30% | 40% | 53% | – | –
16 | O=C(O)C(=O)N(Cc1ccc(Cl)cc1Cl)c1ccc(-c2ccc(OC(F)(F)F)cc2)cc1 [Compound 144] | 3% | 22% | 76% | – | –
17 | CC(C)(C)c1ccc(CN(C(=O)C(=O)O)c2ccc(Nc3ccc(OC(F)(F)F)cc3)cc2)cc1 [Compound 626] | 42% | 77% | 97% | – | –
18 | CC(C)(C)c1ccc(Oc2ccc(-c3ccc(OC(F)(F)F)cc3)cc2CCC(=O)O)c(CCC(=O)O)c1 [Compound 542] | 67% | – | – | 0% | 14%
19 | CCCCCCOc1ccc(-c2ccc(OC(F)(F)F)cc2)cc1N(CCCCc1ccccc1)C(=O)C(=O)O [Compound 245] | 93% | 97% | – | – | –
20 | CC(C)(C)c1ccc(CN(C(=O)C(=O)O)c2c(Cl)cc(-c3ccc(OC(F)(F)F)cc3)cc2Cl)cc1 [Compound 173] | 63% | 95% | 90% | – | –
21 | O=C(O)CCc1cc(-c2ccc(OC(F)(F)F)cc2)ccc1OCc1ccc(F)cc1 [Compound 20] | – | 10% | 53% | – | –
22 | CCCCCN(C(=O)C(=O)O)c1ccc(-c2ccc(OC(F)(F)F)cc2)cc1 [Compound 254] | 3% | 9% | 31% | – | –

Row | Compound | Inhibition Rate of PAI-1 Activity (%) (Compound Concentration 5 μM) | Inhibition Rate of PAI-1 Activity (%) (Compound Concentration 10 μM) | Inhibition Rate of PAI-1 Activity (%) (Compound Concentration 25 μM) | Inhibition Rate of PAI-1 Activity (%) (Compound Concentration 0.5 μM) | Inhibition Rate of PAI-1 Activity (%) (Compound Concentration 1 μM)
23 | Cc1ccc(-c2cccc([N+](=O)[O-])c2)cc1N(Cc1ccc(C(C)(C)C)cc1)C(=O)C(=O)O [Compound 138] | – | 4% | 61% | – | –
24 | O=C(O)C(=O)N(Cc1ccc(F)cc1)c1ccc(-c2ccc(OC(F)(F)F)cc2)cc1 [Compound 155] | 7% | 15% | 38% | – | –
25 | Cc1ccc(CN(C(=O)C(=O)O)c2ccc(-c3ccc(OC(F)(F)F)cc3)cc2)cc1 [Compound 143] | – | 1% | 22% | – | –
26 | CC(C)(C)Oc1ccc(N(CCCCc2ccccc2)C(=O)C(=O)O)cc1-c1ccc(OC(F)(F)F)cc1 [Compound 249] | 68% | 89% | – | – | –
27 | O=C(O)C(=O)N(CCCCc1ccccc1)c1ccc(N2CCCCC2)c(-c2ccc(OC(F)(F)F)cc2)c1 [Compound 247] | 93% | 99% | – | – | –
28 | CC(C)(Nc1cc(-c2ccc(OC(F)(F)F)cc2)ccc1OCc1ccc(C(C)(C)C)cc1)C(=O)O [Compound 420] | 42% | 64% | 83% | – | –
29 | CC(C)(C)c1ccc(-c2ccc(Oc3ccc(-c4ccc(OC(F)(F)F)cc4)cc3/C=C/C(=O)O)c(CCC(=O)O)c2)cc1 [Compound 540] | 75% | 91% | 91% | – | –
30 | O=C(O)CCc1cc(-c2ccc(OC(F)(F)F)cc2)ccc1OCc1ccc(C(F)(F)F)cc1 [Compound 22] | – | 13% | 80% | – | –
31 | COc1cc(-c2ccc(OC(F)(F)F)cc2)cc(CCC(=O)O)c1OCc1ccc(C(C)(C)C)cc1 [Compound 82] | 26% | 59% | 98% | – | –
32 | CC(C)(C)c1ccc(CN(C(=O)C(=O)O)c2ccc(-c3ccc(F)cc3)cc2)cc1 [Compound 127] | 21% | 43% | – | – | –
33 | O=C(O)Cc1cc(-c2ccc(OC(F)(F)F)cc2)ccc1OCc1ccccc1 [Compound 1] | 18% | 31% | – | – | –
34 | CC(C)(C)c1ccc(Oc2cc(-c3ccc(OC(F)(F)F)cc3)ccc2OC(F)C(=O)O)cc1 (stereo not shown) [Compound 119] | 75% | 93% | 99% | – | –
35 | Cc1cc(-c2ccc(OC(F)(F)F)cc2)cc(CCC(=O)O)c1OCc1ccc(C(C)(C)C)cc1 [Compound 84] | 28% | 62% | 95% | – | –
36 | CC(C)(C)c1ccc(CN(C(=O)C(=O)O)c2ccc(-c3ccc(OC(F)(F)F)cc3)c(CCC(=O)O)c2)cc1 [Compound 196] | 18% | 35% | 64% | – | –
37 | CCCCc1ccc(CN(C(=O)C(=O)O)c2ccc(-c3ccc(OC(F)(F)F)cc3)cc2)cc1 [Compound 167] | 37% | 75% | 87% | – | –
38 | CC(c1ccc(C(C)(C)C)cc1)N(C(=O)C(=O)O)c1ccc(-c2ccc(OC(F)(F)F)cc2)cc1 (stereo not shown) [Compound 220] | 51% | 86% | 89% | – | –
39 | CC(C)(C)c1ccc(CN(C(=O)C(=O)O)c2ccc(N3CCCCC3=O)c(-c3ccc(OC(F)(F)F)cc3)c2)cc1 [Compound 219] | 33% | 58% | 86% | – | –
40 | CC(C)(C)c1ccc(CN(C(=O)C(=O)O)c2cc(Oc3ccc(OC(F)(F)F)cc3)cc(C(F)(F)F)c2)cc1 [Compound 175] | 66% | 94% | 87% | – | –
41 | Cc1ccc(-c2ccccc2)cc1N(Cc1ccc(C(C)(C)C)cc1)C(=O)C(=O)O [Compound 137] | – | 5% | 61% | – | –
42 | O=C(O)C(=O)N(Cc1c(Cl)cccc1Cl)c1ccc(-c2ccc(OC(F)(F)F)cc2)cc1 [Compound 171] | 22% | 44% | 81% | – | –
43 | CC(C)(C)c1ccc(COc2ccc(-c3ccccc3OC(F)(F)F)cc2CCC(=O)O)cc1 [Compound 66] | 52% | 80% | >99% | – | –
44 | O=C(O)C=Cc1cc(-c2ccc(OC(F)(F)F)cc2)ccc1Oc1ccc(OC(F)(F)F)cc1 [Compound 15] | 23% | 47% | 94% | – | –
